Assay results reported in US20200278355A1, “CONJUGATED PROTEINS AND USES THEREOF” (THE SCRIPPS RESEARCH INSTITUTE, priority 2017, published 2020).

Legend:
TXN = molecular target: T1, TXN (Homo sapiens, UniProt P10599); test: isoTOP-ABPP of compound-treated H460 cells: TXN; format: cell-based; conditions: TXN C35; 40 μM
T1 construct: H460 cells or H460 cells expressing luciferase in a 10 cm plate were incubated with indicated compounds; endogenous in cells; host or cells: H460
Method: For analysis of NR0B1 ligands or control compound reactivity, H460 cells or H460 cells expressing luciferase in a 10 cm plate were incubated with indicated compounds in serum/dye-free RPMI for 3 hours at 37° C. Cells were washed once ice-cold PBS and lysed in 1% Triton X-100 dissolved in PBS with protease inhibitors (Sigma) by sonication. Samples were clarified by centrifugation for 10 min at 16,000×g. Lysate was adjusted to 1.5 mg ml^−1 in 500 μL.
Samples were labeled for 1 h at ambient temperature with 100 μM iodoacetamide alkyne (1, IA-alkyne, 5 μL of 10 mM stock in DMSO). Samples were conjugated by copper-catalyzed azide-alkyne cycloaddition (CuAAC) to isotopically labeled, TEV-cleavable tags (TEV-tags). Heavy CuAAC reaction mixtures was added to the DMSO-treated or shGFP control samples and light CuAAC reaction mixture was added to compound-treated or shNRF2 samples. The CuAAC reaction mixture consisted of TEV tags (light or heavy, 10 μL of 5 mM stocks in DMSO, final concentration=100 μM), 1 mM tris(2-carboxyethyl)phosphine hydrochloride (TCEP; fresh 50× stock in water, final concentration=1 mM), ligand (17× stock in DMSO:t-butanol 1:4, final concentration=100 μM) and 1 mM CuSO4 (50× stock in water, final concentration=1 mM). The samples were allowed to react for 1 h at which point the samples were centrifuged (16,000×g, 5 min, 4° C.). […]

SCP2 = molecular target: T2, SCP2 (Homo sapiens, UniProt P22307); test: ABPP-SILAC BPK-29yne competition in H460 cells: SCP2; format: cell-based; conditions: 20 μM
T2 construct: H460 cells or H460 cells expressing luciferase in a 10 cm plate were incubated with indicated compounds; endogenous in cells; host or cells: H460
T2 sequence (P22307 whole entry): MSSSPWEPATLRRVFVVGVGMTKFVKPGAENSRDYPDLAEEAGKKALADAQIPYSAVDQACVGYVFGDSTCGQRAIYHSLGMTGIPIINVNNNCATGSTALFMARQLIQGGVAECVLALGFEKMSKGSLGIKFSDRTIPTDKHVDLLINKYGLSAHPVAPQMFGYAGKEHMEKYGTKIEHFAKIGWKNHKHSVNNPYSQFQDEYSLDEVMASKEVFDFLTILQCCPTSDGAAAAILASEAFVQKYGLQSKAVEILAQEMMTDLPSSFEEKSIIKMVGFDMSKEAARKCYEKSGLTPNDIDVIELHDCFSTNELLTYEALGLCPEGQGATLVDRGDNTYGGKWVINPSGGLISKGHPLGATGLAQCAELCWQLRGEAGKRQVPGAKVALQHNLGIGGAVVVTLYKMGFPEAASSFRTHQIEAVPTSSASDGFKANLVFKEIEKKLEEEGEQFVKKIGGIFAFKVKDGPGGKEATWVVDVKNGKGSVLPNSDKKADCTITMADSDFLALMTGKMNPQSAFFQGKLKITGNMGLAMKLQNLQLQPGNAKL
Method: Isotopically labeled H460 cell lines were generated as described above. Light and heavy cells were treated with compounds (20 μM) or DMSO, respectively, for 3 h, followed by labeling with the BPK-29yne (5 μM) for 30 min. Cells were washed once ice-cold PBS and lysed in 1% Triton 100-X dissolved in PBS with protease inhibitors (Sigma) by sonication. Lysate was adjusted to 1.5 mg ml^−1 in 500 μL. Samples were conjugated by CuAAC to Biotin-PEG4-azide (5 μL of 10 mM stocks in DMSO, final concentration=100 μM). CuAAC “click” mix contained TCEP, TBTA ligand and CuSO4 as detailed for isoTOP-ABPP sample preparation. Samples were further processed as detailed in: isoTOP-ABPP streptavidin enrichment and isoTOP-ABPP trypsin TEV digestion with the following exception: after overnight incubation at 37° C. with trypsin, tryptic digests were separated from the beads with Micro Bio-Spin columns (Bio-Rad) by centrifugation (1,000×g, 1 min). Beads were rinsed once with water (200 μL) and combined with tryptic digests. […]
The MS2 spectra data were extracted and searched using RAW Convertor and ProLuCID algorithm as described in isoTOP-ABPP peptide and protein quantification. […] Ratios of heavy/light (DMSO/test compound) peaks were calculated using in-house CIMAGE software. […] The mean R values and standard deviation for multiple biological experiments were calculated from the average ratios from each replicate. […]

T1 sequence (P10599 whole entry): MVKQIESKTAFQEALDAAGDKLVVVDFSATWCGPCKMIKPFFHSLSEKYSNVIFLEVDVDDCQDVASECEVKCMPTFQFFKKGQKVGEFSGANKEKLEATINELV

O=C(c1ccc(N2CCOCC2)cc1)N1CCCC(N(Cc2ccccc2)C(=O)CCl)CC1 (centres unmarked) [BPK-29, N-benzyl-2-chloro-N-(1-(4-morpholinobenzoyl)azepan-4-yl)acetamide] was tested, and the “BPK-29-competed isoTOP-ABPP analysis” value (TXN) was “Yes (Competed defined as showing R value ≥ 3.0 at 40 μM of test compound)” and the “BPK-29-competed BPK-29yne analysis” value (SCP2) was “Yes (Competed defined as showing R value ≥ 2.5 at 20 μM of test compound)”.
